Here are results for 2 compounds from article PMC8080777, “Discovery, optimization, and evaluation of non-bile acid FXR/TGR5 dual agonists” (Scientific Reports, 2021).

Molecules are shown by their SMILES.

Data set [1] relates to SHP mRNA. In words: In vivo FXR assay: SHP mRNA in mice liver by real-time PCR. To be noted: CDAHFD-fed C57BL/6J mice, single oral dose 100, 30 and 10 mg/kg, liver four hours after administration. The method, then: (§1) Test compounds were orally administered to 7-week old male C57BL/6J mice (Nippon Charles River Co., Ltd., Yokohama City, Kanagawa, Japan), that were administered CDAHFD (#A06071302, Research Diets, 20 Jules Lane, New Brunswick, NJ, USA) consisting 60 kcal% fat and 0.1% methionine by weight for 7 days. After four hours of administration, the liver was removed, and total RNA was extracted using a Pure Link RNA Mini Kit (Invitrogen, Thermo Fisher Scientific K. K., Minato-ku, Tokyo, Japan). The concentration of total RNA was measured using Micro Sample Spectrophotometer (SimpliNano, GE Healthcare UK Ltd, Amersham Place Little Chalfont Buckinghamshire, HP7 9NA UK), and cDNA was synthesized using ReverTra Ace qPCR RT Master Mix (Toyobo Co., Ltd., Osaka City, Osaka, Japan). Real-time PCR was performed using a CFX96 Touch Real-Time PCR Analysis System (CFX Manager, Bio-Rad, 1000 Alfred Nobel Drive, Hercules, CA, USA), and the mRNA expression levels of SHP and CYP7A1, the target genes of FXR, were measured using the intercalator method.
(§2) S4. In vitro, in vivo assay, and selectvity.
(§3) To directly evaluate the in vitro agonist activity towards FXR, test compounds were evaluated in CHO cells transfected with FXR responsive luciferase reporter (Nuclear Receptor & In Vitro Toxicology Solutions, Indigo Biosciences, State College, PA, USA). […]

In data set [2] the target is T1, TGR5 (Homo sapiens, UniProt Q8TDU6).
T1 construct: host or cells: CHO cells
T1 sequence (Q8TDU6 1-330): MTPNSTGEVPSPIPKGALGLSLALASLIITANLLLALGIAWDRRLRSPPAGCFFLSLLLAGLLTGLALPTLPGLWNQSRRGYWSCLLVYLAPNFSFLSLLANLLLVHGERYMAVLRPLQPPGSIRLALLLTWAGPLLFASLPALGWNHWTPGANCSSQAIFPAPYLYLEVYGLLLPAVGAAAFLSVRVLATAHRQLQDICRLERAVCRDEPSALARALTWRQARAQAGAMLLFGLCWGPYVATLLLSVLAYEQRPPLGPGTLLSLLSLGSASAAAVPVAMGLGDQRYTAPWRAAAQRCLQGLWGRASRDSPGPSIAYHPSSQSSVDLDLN
In words: TGR5 cAMP assay in CHO cells transfected with TGR5 (cAMP Hunter eXpress, Discover X). The data set is classed as cell-based. The settings on record: for TGR5 Efficacy (%) (1 µM) / TGR5 Efficacy (%) (10 µM): % vs INT-767 10 µM as 100%; for EC50: 4 parameter logistic fit. In general terms: cAMP levels reflect the balance of adenylyl cyclase and phosphodiesterase activity.

The nature of data set [3]: Pharmacokinetics in rats. The data set is classed as in vivo, Sprague-Dawley rats. To be noted: for Cmax / half-life / CLtot: n=3; for AUC: n=3, AUC0-24h; for Plasma exposure (in words): oral dose of 3 mg/kg; for CLtot: p.o. The method, then:
S3. Supplementary Table S1. Pharmacokinetic properties of 20p and 20q after oral administration […]
Determination of Drug Pharmacokinetics in Sprague-Dawley rats.
Blood samples (about 200 µl) were obtained from the jugular vein at 0.083 (intravenous only), 0.25, 0.5, 1, 2, 4, 8, and 24 hours from 16-hour fasted rats. Plasma was obtained from the blood samples by centrifugation at 3000 rpm for 10 minutes at 4 °C. Plasma were deproteinated and centrifuged at 3000 rpm for 10 minutes at 4 °C. Drug concentrations were measured using LC - MSMS (Triple Quad 4500; […]). Area under the plasma concentration -time curve at 0–24h (AUC0–24h) were calculated using the trapezoidal rule. pharmacokinetic parameters were calculated using the Phoenix WinNonlin 6.4 software (Certara […]

Data set [4] concerns CYP7A1. In words: In vivo FXR assay: CYP7A1 in mice liver by real-time PCR. To be noted: CDAHFD-fed C57BL/6J mice, single oral dose 30 and 10 mg/kg, liver four hours after administration. How it is done: as §1, §2, §3
Setting [5] is: Sprague-Dawley, rat, plasma, po, 3mg/kg.
[6] abbreviates: Sprague-Dawley, rat, plasma, iv, 3mg/kg.

In the case of `COc1cc(Cl)cc(N(CC23CCC(c4ccc(OC)c(C#N)c4)(CC2)CC3)C(=O)c2ccncc2C)c1` [Compound 20p], the “Induction of SHP mRNA in the liver” value in data set [1] is “dose-dependently induced SHP mRNA in the liver”. For the same compound, in data set [2], the “TGR5 agonist activity (in words)” value is recorded as “strong dual agonist potencies”; the “TGR5 Efficacy (%) (1 µM)” value stood at 51.1%; the “TGR5 Efficacy (%) (10 µM)” value stood at 62.4%; the concentration for a half-maximal effect (EC50) – broadly, the concentration that produces a half-maximal response – was 420 nM. In addition, in data set [3] (setting [5]), the Cmax (in general, the highest concentration seen after dosing) was 50.3 ng/mL; the half-life (as a rule, the time needed for the level to fall by half in the phase considered) is 1.45 h; the AUC (usually the area under the concentration-time curve, a measure of exposure) was found to be 121 ng·h/mL. Also, in data set [3], the “Plasma exposure (in words)” value is listed as “rather low plasma exposure”. Besides, in data set [3] (3mg/kg), the CLtot was 426.93 mL/min/kg. Moreover, the “Repression of CYP7A1 in the liver” value in data set [4] is “decreased CYP7A1 in the liver”.
In the case of `COc1ccc(C23CCC(CN(C(=O)c4ccncc4C)c4cc(Cl)cc(Cl)c4)(CC2)CC3)cc1C#N` [Compound 20q], in data set [1], the “Induction of SHP mRNA in the liver” value was “dose-dependently induced SHP mRNA in the liver”. In addition, in data set [2], the “TGR5 agonist activity (in words)” value is reported as “strong dual agonist potencies”, the “TGR5 Efficacy (%) (1 µM)” value worked out at 51.2%, the “TGR5 Efficacy (%) (10 µM)” value turned out to be 80.2% and a half-maximal effect (EC50) was put at 790 nM. For the same compound, in data set [3] (setting [6]), the Cmax worked out at 2580 ng/mL, the half-life was 5.04 h and the AUC worked out at 1460 ng·h/mL. Also, the clearance in data set [3] (Sprague-Dawley, rat, plasma, iv, 3mg/kg, n=3, read-out: CLtot (converted)) was 34.2 mL/min/kg. Besides, in data set [3] (setting [5]), the Cmax is 3.2 ng/mL, the half-life is 4.52 h and the AUC is 11 ng·h/mL. In data set [3], the “Plasma exposure (in words)” value was “rather low plasma exposure”. The same compound showed a CLtot in data set [3] (3mg/kg) of 2652.33 mL/min/kg. The “Repression of CYP7A1 in the liver” value in data set [4] is “decreased CYP7A1 in the liver”.
